Columns and labels:
[1] = test system: SARS-CoV-2 mimics; assay: In vivo clearance of the SARS-CoV-2 mimicking virus by nanodecoys in mice; set-up: species or system CD1 mice; conditions: mouse
[2] = test system: COVID-19; conditions: hospitalized COVID-19 patients; cited from earlier work

Molecule | amounts of SARS-CoV-2 mimics in lungs (ex vivo imaging) [1] | effect on overall mortality, necessity for mechanical ventilation, and length of hospital stay [2]
rACE2: free recombinant ACE2 protein, same amount of ACE2 as on the nanodecoys | ineffective | 
CCN(CCO)CCCC(C)Nc1ccnc2cc(Cl)ccc12 (stereo not drawn) [hydroxychloroquine] |  | little or no effect
lopinavir/ritonavir |  | little or no effect

Source: patent US20230218746A1, “COMPOSITIONS AND METHODS RELATING TO ANTIVIRAL THERAPEUTICS” (priority 2020, published 2023)
